Results reported in PubChem BioAssay (NCI).
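1) Cells in 96-well plates. 2) Compound, 48 h, 5 concentrations. 3) Linear interpolation between surrounding doses. 4) Unreached endpoint = highest concentration. GI50: concentration for 50% inhibition of growth. At the TGI there is no net growth.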

Tests used:
Assay in all cases: NCI tumour cell line growth inhibition, 48 h
[1] = system: U251 CNS
[2] = system: HCC-2998 colon
[3] = system: NCI-H460 lung
[4] = system: CAKI-1 renal
[5] = system: MOLT-4 leukemia
[6] = system: COLO 205 colon
[7] = system: PC-3 prostate
[8] = system: NCI-H522 lung
[9] = system: SNB-75 CNS
[10] = system: HOP-92 NSCLC
[11] = system: OVCAR-3 ovarian
[12] = system: RXF 393 renal
[13] = system: ACHN renal
[14] = system: HT29 colon
[15] = system: HCT-116 colon
[16] = system: A498 renal
[17] = system: HCT-15 colon
[18] = system: MDA-MB-468 breast
[19] = system: SK-MEL-5 melanoma
[20] = system: HL-60(TB) leukemia
[21] = system: UACC-257 melanoma
[22] = system: MDA-MB-435
[23] = system: SW-620 colon
[24] = system: 786-0 renal
[25] = system: TK-10 renal
[26] = system: OVCAR-8 ovarian
[27] = system: EKVX NSCLC
[28] = system: OVCAR-4 ovarian
[29] = system: A549 NSCLC
[30] = system: SK-MEL-28 melanoma

SMILES: CN1CCN(c2ccc(Nc3nc(NCCCNC(=O)C4CCCCC4)c4sccc4n3)cc2)CC1
- TGI [1]: 19.9 µM
- GI50 [2]: 13.8 µM
- TGI [2]: 26.9 µM
- GI50 [3]: 14.6 µM
- TGI [3]: 30.8 µM
- GI50 [4]: 14.5 µM
- TGI [4]: 30.5 µM
- GI50 [5]: 3.19 µM
- TGI [5]: 20.8 µM
- GI50 [6]: 17.7 µM
- TGI [6]: 38.2 µM
- GI50 [7]: 12.4 µM
- TGI [7]: 42.2 µM
- GI50 [8]: 13 µM
- TGI [8]: 27 µM
- GI50 [9]: 11.2 µM
- TGI [9]: 24.7 µM
- GI50 [10]: 10.6 µM
- TGI [10]: 34.3 µM
- GI50 [11]: 16.2 µM
- TGI [11]: 33.5 µM
- GI50 [12]: 5.49 µM
- TGI [12]: 20 µM
- GI50 [13]: 15.6 µM
- TGI [13]: 35.1 µM
- GI50 [14]: 4.28 µM
- TGI [14]: 17 µM
- GI50 [15]: 3.98 µM
- TGI [15]: 18.5 µM
- GI50 [16]: 22 µM
- TGI [16]: 37.7 µM
- GI50 [17]: 5.77 µM
- TGI [17]: 25.6 µM
- GI50 [18]: 2.96 µM
- TGI [18]: 17.2 µM
- GI50 [19]: 8.82 µM
- TGI [19]: 21 µM
- GI50 [20]: 4.55 µM
- TGI [20]: 23.3 µM
- GI50 [21]: 3.61 µM
- TGI [21]: 14.9 µM
- GI50 [22]: 15.6 µM
- TGI [22]: 30.8 µM
- GI50 [23]: 17.3 µM
- TGI [23]: 36.4 µM
- GI50 [24]: 10.8 µM
- TGI [24]: 26.4 µM
- GI50 [25]: 24.6 µM
- TGI [25]: 51.7 µM
- GI50 [26]: 16 µM
- TGI [26]: 36.7 µM
- GI50 [27]: 15.8 µM
- TGI [27]: 33.9 µM
- GI50 [28]: 15.7 µM
- TGI [28]: 57.7 µM
- GI50 [29]: 20.7 µM
- TGI [29]: 80.8 µM
- GI50 [30]: 6.24 µM
- TGI [30]: 19.5 µM
